Data: ChEMBL document CHEMBL1123196, “p-Dimethoxy-substituted trans-octahydrobenzo[f]- and -[g]quinolines: synthesis and assessment of dopaminergic agonist effects” (1986)
Active and inactive are the calls of the source. The rule behind the calls is not given here.

Tests used:
Felis catus [1] = assay: Compound at a dose of 100 ug/kg was evaluated for the reversal of the inhibition of nerve stimulation using the cat cardioaccelerator nerve preparation; Reversed inhibition; assay type: functional, organism-based
Felis catus [2] = assay: Compound at a dose of 50 ug/kg was evaluated for the reversal of the inhibition of nerve stimulation using the cat cardioaccelerator nerve preparation; Reversed inhibition; assay type: functional, organism-based
[3] = target: D(2) dopamine receptor (Homo sapiens) (UniProt P14416); assay: Antagonistic activity at a dose of 3.08 umol/kg was evaluated against Dopamine receptor D2 in the […] cardioaccelerator nerve preparation; Inactive; assay type: functional
[4] = target: D(2) dopamine receptor (Homo sapiens) (UniProt P14416); assay: Agonistic activity at a dose of 3.08 umol/kg was evaluated against Dopamine receptor D2 in the […] cardioaccelerator nerve preparation; Inactive; assay type: functional; settings: Felis catus
[5] = target: D(2) dopamine receptor (Homo sapiens) (UniProt P14416); assay: Agonistic activity at a dose of 12.3 umol/kg was evaluated in rats with unilateral lesion of the nigrostriatal pathway (post junctional dopamine receptors); Inactive; assay type: functional; settings: Rattus norvegicus, target entry is the homologue from another species
[6] = target: T1, Dopamine receptor (Rattus norvegicus) (UniProt P25115+P19020+P30729+P18901+P61169); assay: Antagonistic activity at a dose of 12.3 umol/kg was evaluated in rats with unilateral lesion of the nigrostriatal pathway (post junctional dopamine receptors); Inactive; assay type: functional
Felis catus [7] = organism: Felis catus; assay: Inhibitory dose was evaluated for the inhibition of the chronotropic response to nerve stimulation using the cat cardioaccelerator nerve preparation; assay type: functional; settings: read-out: ID50 (the source's name)
[8] = target: D(2) dopamine receptor (Homo sapiens) (UniProt P14416); assay: Potency was evaluated for the activity against Dopamine receptor D2 of cat cardioaccelerator nerve preparation; Active; settings: Felis catus; target entry is the homologue from another species
Felis catus [9] = organism: Felis catus; assay: Inhibitory dose was evaluated on the cat cardioaccelerator nerve preparation; assay type: functional; settings: read-out: ID50 (the source's name)
[10] = target: D(2) dopamine receptor (Homo sapiens) (UniProt P14416); assay: Antagonistic activity at a dose of 3.4 umol/kg was evaluated against Dopamine receptor D2 in the […] cardioaccelerator nerve preparation; Inactive; assay type: functional; settings: Felis catus
[11] = target: D(2) dopamine receptor (Homo sapiens) (UniProt P14416); assay: Agonistic activity at a dose of 13.3 umol/kg was evaluated in rats with unilateral lesion of the nigrostriatal pathway (post junctional dopamine receptors); Inactive; assay type: functional; settings: Rattus norvegicus, target entry is the homologue from another species
[12] = target: D(2) dopamine receptor (Homo sapiens) (UniProt P14416); assay: Agonistic activity at a dose of 3.4 umol/kg was evaluated against Dopamine receptor D2 in the […] cardioaccelerator nerve preparation; Inactive; assay type: functional; settings: Felis catus
[13] = target: T1, Dopamine receptor (Rattus norvegicus); assay: Antagonistic activity at a dose of 13.3 umol/kg was evaluated in rats with unilateral lesion of the nigrostriatal pathway (post junctional dopamine receptors); Inactive; assay type: functional
Felis catus [14] = organism: Felis catus; assay: Inhibitory dose was evaluated against cat cardioaccelerator nerve preparation; assay type: functional; settings: read-out: ID50 (the source's name)

Sequence of D(2) dopamine receptor (Homo sapiens) (P14416 whole entry): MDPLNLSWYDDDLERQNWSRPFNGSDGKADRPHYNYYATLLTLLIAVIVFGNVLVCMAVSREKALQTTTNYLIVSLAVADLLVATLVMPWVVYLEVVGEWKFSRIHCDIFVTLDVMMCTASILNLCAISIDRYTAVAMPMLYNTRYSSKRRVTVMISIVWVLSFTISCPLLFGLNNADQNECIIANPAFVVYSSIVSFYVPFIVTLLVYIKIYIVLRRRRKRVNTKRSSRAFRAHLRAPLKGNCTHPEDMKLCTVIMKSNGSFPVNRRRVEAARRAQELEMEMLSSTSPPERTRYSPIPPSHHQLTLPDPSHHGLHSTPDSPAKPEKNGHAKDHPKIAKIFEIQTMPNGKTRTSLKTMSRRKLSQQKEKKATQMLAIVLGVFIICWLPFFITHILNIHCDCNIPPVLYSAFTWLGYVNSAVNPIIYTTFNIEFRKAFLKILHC

With O=C(CCCN1CCC(O)(c2ccc(Cl)cc2)CC1)c1ccc(F)cc1 the Activity (Felis catus [1]) was “Active” and the Activity (Felis catus [2]) was “Active”.
In the case of CCCN1CCC[C@@H]2c3c(OC)ccc(OC)c3CC[C@@H]21, the Activity [3] is reported as “inactive”, the Activity [4] is reported as “inactive” and the Activity [5] is reported as “inactive”. The Activity [6] was “inactive”.
CCCN1CCC[C@H]2c3c(OC)ccc(OC)c3CC[C@@H]21 gave an ED50 (Felis catus [7]) of 1.17 µmol/kg.
With CCCN(CCC)C1CCc2c(O)cccc2C1 (stereo not given) the Activity [8] was “Active”.
Compound CN1CCc2cccc3c2[C@H]1Cc1ccc(O)c(O)c1-3 [APOMORPHINE] has an ED50 (Felis catus [9]) of 0.022 µmol/kg.
For CCCN(CCC)CCc1cc(OC)ccc1OC, the Activity [10] was “inactive”, the Activity [11] was “inactive” and the Activity [12] was “inactive”. The Activity [13] was “inactive”.
CCCN(CCC)C1Cc2cccc(O)c2C1 (stereo not given) was tested, and the Activity [8] was “Active”.
In the case of CCCN1CCC[C@@H]2Cc3c(OC)ccc(OC)c3C[C@H]21, the ED50 (Felis catus [14]) is reported as 0.032 µmol/kg.
